Laboratory results: US10092613B2 (NATUREX, S.A., priority 2008, dated 2018)
Where “and” joins values, the source holds several entries; their conditions need not be identical. Identical values can stand only once. Like-named read-outs stand apart in the source and are kept apart here. Blank lines part the entries; values can stand above or below the molecule they belong to.

Key:
[1] = target: T1, hepatic Glc-6-Pase system (Homo sapiens, UniProt O43826); experiment: Glc-6-Pase hydrolysis in intact human liver microsomes (phosphate release); assay type: biochemical; settings: for Percentage inhibition of G6Pase: each compound at its naturally occurring concentration in 0.6 mM extract, 2 mM substrate; for Contribution to Glc-6-Pase system inhibition by the green coffee extract: inhibition of compound divided by inhibition of 0.6 mM total CGAs from the extract
T1 construct: Glc-6-Pase hydrolysis in intact human liver microsomes; tissue BD Biosciences; host or cells: pooled human liver microsomes, intact
T1 sequence (O43826 1-429): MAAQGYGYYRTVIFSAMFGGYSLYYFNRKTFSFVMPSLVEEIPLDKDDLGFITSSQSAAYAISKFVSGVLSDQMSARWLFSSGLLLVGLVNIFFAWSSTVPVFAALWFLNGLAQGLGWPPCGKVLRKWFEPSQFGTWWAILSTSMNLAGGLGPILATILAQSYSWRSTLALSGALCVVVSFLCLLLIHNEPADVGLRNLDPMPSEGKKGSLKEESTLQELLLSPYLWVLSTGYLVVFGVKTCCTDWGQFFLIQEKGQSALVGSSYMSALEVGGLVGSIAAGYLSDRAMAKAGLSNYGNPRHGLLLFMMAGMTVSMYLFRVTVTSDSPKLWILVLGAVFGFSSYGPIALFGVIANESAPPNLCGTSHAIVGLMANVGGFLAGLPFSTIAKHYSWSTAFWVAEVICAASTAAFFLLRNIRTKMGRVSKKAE
Protocol: A secondary purpose of Example 8 was to determine the inhibitory effects of a series of structurally-related compounds in the extract, such as caffeoylquinic acids and caffeoylferuloylquinic acids. Example 8 tested whether the extract could inhibit the hepatic Glc-6-Pase system by measuring enzymatic activity in human liver microsomes. These experiments were conducted with or without the extract at final CGA concentrations of 0.2, 0.4 and 0.6 mM. The effect of the extract on Glc-6-Pase activity was tested as a function of […] substrate concentration (2-10 mM).
Measurement of Glc-6-Pase Activity in Microsomes: Microsomal Glc-6-Pase activity was measured on the basis of the rate of release of phosphate under the assay conditions that were described by Wallert et al., Kinetic analysis of glucose-6-phosphatase: an investigative approach to carbohydrate metabolism and kinetics. Biochem. Mol. Biol. Educ. 2001, 29, 199-203. The enzyme assays were performed at 37° C. in a final volume of […] containing 100 mM cacodylic acid, pH 6.5 and concentrations of the substrate […] ranging from 2 to 10 mM.
The reaction was started by adding intact microsomes and was stopped with the addition of 3.2 mL of colorimetric reagent [9 volumes of molybdate (0.42% ammonium molybdate in 1 N H2SO4), 2 volumes of 5% SDS and 1 volume of 10% ascorbic acid, freshly prepared and stored on ice for a maximum of 6 h]. All samples were incubated for 30 minutes at 45° C., and the absorbance of the phosphate-molybdate complex was measured at 820 nm.
Microsomal intactness was quantified by measuring Man-6-Pase activity. Anion, W J. Measurement of intactness of rat liver endoplasmic reticulum. Methods Enzymol. 1989, 174, 58-67. In a preliminary study, Glc-6-Pase activity in intact human liver microsomes was determined on the basis of microsomal protein concentration and incubation time to obtain optimal experimental conditions, that is, 100 μg of microsomal proteins and 5 minutes of incubation (data not shown). Quantification was performed at optimal wavelengths (330 nm) for the CGAs during chromatographic separation. Samples were filtered (0.45 μm), and 2 μL was injected directly. The standard deviation for three analyses of the same sample was <5% for all compounds.
Preparation of Test Compounds: Stock solutions of test compounds were prepared in ultrapure water (pH 6.5) and diluted with assay reagent to the final concentrations.
Enzymatic activity was expressed as micromoles of phosphate released per minute per milligram of protein. Results were expressed as means±standard deviation (SD) of three independent experiments. Percentage of inhibition of Glc-6 Pase system activity was calculated by dividing the initial rate of reaction in microsomes that were treated with individual compounds by the initial rate of reaction in untreated microsomes. […] Statistical analysis was performed using an ANOVA test followed by a post hoc Tukey test under a normality assumption (Shapiro Wilk) or Kruskall Wallis nonparametric test followed by Bonferroni adjusted Mann-Whitney test otherwise; p<0.05 was considered to be significant. […]

[2] = Plasma pharmacokinetics of CGA and metabolites after 400 mg green coffee extract, ten volunteers; assay type: in vivo, human; settings: for Cmax / AUC / Tmax: plasma, 400 mg green coffee extract oral, mean ± SD, n = 10; for molar ratio 3,5-diCQA:4,5-diCQA:3,4-diCQA in plasma / molar ratio 5-CQA:4-CQA:3-CQA in plasma: ratios of AUC in plasma; for contribution to AUC of total phenolic compounds in plasma: mean values of plasma AUC; for contribution to total phenolics in plasma: after green coffee extract consumption
Excerpt: In a further phase of the study, ten non-smoker volunteers (22-55 y), five male and five female, were recruited. […] They were asked to eat only animal foods, refined cereal foods and artificial beverages. […] Blood samples were collected into heparin-containing tubes. Baseline blood aliquots were used to determine hematocrit and hemoglobin levels by standard methods. Plasma samples were obtained by centrifugation of the blood samples immediately after being drawn. Urine samples were also collected at baseline interval (minus 2-0 h) and at intervals of 0-2 h; 2-4 h; 4-6 h and 6-8 h after coffee consumption into appropriate plastic containers. Total urine volume was measured for each collection period. Plasma and urine aliquots for determination of CGA were acidified with HCl and kept frozen in liquid nitrogen until analyses. Urine aliquots for determination of creatinine were acidified with HCl and kept at −20° C. until analyses.
(§1) Results of CGA and phenolic acids in urine were normalized by creatinine excretion.

[3] = Urinary excretion of CGA and metabolites after 400 mg green coffee extract, ten volunteers; assay type: in vivo, human
Protocol: In a further phase of the study, ten non-smoker volunteers (22-55 y), five male and five female, were recruited. Subjects were instructed to avoid consumption of phenolic-containing foods during the 48 h prior to the study. They were asked to eat only animal foods, refined cereal foods and artificial beverages. On the day of the study, after 10-12 h overnight fasting, an I.V. catheter was inserted into the antecubital vein and a baseline heparinized blood sample was obtained. […] Blood samples were collected into heparin-containing tubes. Baseline blood aliquots were used to determine hematocrit and hemoglobin levels by standard methods. Plasma samples were obtained by centrifugation of the blood samples immediately after being drawn. Urine samples were also collected at baseline interval (minus 2-0 h) and at intervals of 0-2 h; 2-4 h; 4-6 h and 6-8 h after coffee consumption into appropriate plastic containers. Total urine volume was measured for each collection period. Plasma and urine aliquots for determination of CGA were acidified with HCl and kept frozen in liquid nitrogen until analyses. Urine aliquots for determination of creatinine were acidified with HCl and kept at −20° C. until analyses.
as §1

[4] = target: T2, Glc-6-Pase (Rattus norvegicus, UniProt P43428); settings: fully disrupted microsomes; cited from earlier work
T2 construct: host or cells: rat microsomes (liver)
T2 sequence (P43428 1-357): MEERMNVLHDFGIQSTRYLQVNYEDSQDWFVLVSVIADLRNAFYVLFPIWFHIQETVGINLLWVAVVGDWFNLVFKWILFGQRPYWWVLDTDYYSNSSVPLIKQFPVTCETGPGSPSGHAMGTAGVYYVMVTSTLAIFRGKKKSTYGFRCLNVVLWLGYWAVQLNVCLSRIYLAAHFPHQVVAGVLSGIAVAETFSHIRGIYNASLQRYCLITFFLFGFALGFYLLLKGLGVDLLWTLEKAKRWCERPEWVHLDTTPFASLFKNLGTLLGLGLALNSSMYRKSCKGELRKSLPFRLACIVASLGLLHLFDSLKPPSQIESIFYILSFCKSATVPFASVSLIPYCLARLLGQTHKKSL

[5] = tested on: Glc-6-Pase; settings: intact rat microsomes; cited from earlier work
[6] = both sexes, human, po, 400 mg, read-out: AUC
[7] = both sexes, human, po, 400 mg, read-out: Tmax

Percentage inhibition of G6Pase [1]: 9.2 ± 1.4%
Contribution to Glc-6-Pase system inhibition by the green coffee extract [1]: 25%
contribution to AUC of total phenolic compounds in plasma [2]: 31.3%
AUC [2]: 17.9 ± 15.3 µM·h
Cmax [2]: 5900 ± 4200 nM
Tmax [2]: 3.3 ± 2.4 h
molar ratio 5-CQA:4-CQA:3-CQA in plasma [2]: 6.0
content in baseline urine, variation among the subjects ([3]; both, human, in vivo): up to 0.35 μmol
Compound: O=C(C=Cc1ccc(O)c(O)c1)OC1CC(O)(C(=O)O)CC(O)C1O (stereo not shown) [5-CQA, 5-caffeoylquinic acid]
inhibition of Glc-6-Pase [4]: no effect
inhibition of Glc-6-Pase [5]: inhibits Glc-6-Pase

contribution to total phenolics in plasma [2]: 6.6%
Cmax ([2]; both sexes, human, po, 400 mg): 1100 ± 900 nM
AUC [2, 6]: 3.8 ± 3.2 µM·h
Tmax [2, 7]: 3.6 ± 2.1 h
Compound: O=C(O)/C=C/c1ccc(O)c(O)c1 [Caffeic acid]

contribution to total phenolics in plasma [2]: 6.2%
Cmax ([2]; both sexes, human, po, 400 mg): 800 ± 300 nM
AUC [2, 6]: 3.6 ± 1.5 µM·h
Tmax [2, 7]: 2.9 ± 1.8 h
Compound: COc1cc(/C=C/C(=O)O)ccc1O [Ferulic acid]

contribution to total phenolics in plasma [2]: 6.1%
Cmax ([2]; both sexes, human, po, 400 mg): 900 ± 200 nM
AUC [2, 6]: 3.5 ± 1.9 µM·h
Tmax [2, 7]: 2.9 ± 1.8 h
Compound: COc1ccc(/C=C/C(=O)O)cc1O [Isoferulic acid]

identification in urine ([3]; human, in vivo): not identified
Compound: O=C(O)c1ccc(O)c(O)c1 [Protocatechuic acid]

contribution to total phenolics in plasma [2]: 1.4%
Cmax ([2]; both sexes, human, po, 400 mg): 400 ± 30 nM
AUC [2, 6]: 0.8 ± 0.2 µM·h
Tmax [2, 7]: 2.5 ± 1.8 h
Compound: O=C(O)/C=C/c1ccc(O)cc1 [p-coumaric acid]

More lines, now with the values behind:

Compound: O=C(C=Cc1ccc(O)c(O)c1)OC1CC(O)(C(=O)O)CC(O)C1OC(=O)C=Cc1ccc(O)c(O)c1 (stereo not shown) [3,4-diCQA, 3,4-dicaffeoylquinic acid]
Percentage inhibition of G6Pase [1]: 6.9 ± 4.3%
Contribution to Glc-6-Pase system inhibition by the green coffee extract [1]: 19%
Cmax ([2]; both sexes, human, po, 400 mg): 1500 ± 1600 nM
AUC [2, 6]: 5 ± 4.9 µM·h
Tmax [2, 7]: 2.6 ± 1.8 h
molar ratio 3,5-diCQA:4,5-diCQA:3,4-diCQA in plasma [2]: 1.0

Compound: O=C(C=Cc1ccc(O)c(O)c1)OC1CC(O)(C(=O)O)CC(OC(=O)C=Cc2ccc(O)c(O)c2)C1O (stereo not shown) [3,5-diCQA, 3,5-dicaffeoylquinic acid]
Contribution to Glc-6-Pase system inhibition by the green coffee extract [1]: 0%
Cmax ([2]; both sexes, human, po, 400 mg): 2700 ± 2700 nM
AUC [2, 6]: 8.7 ± 8.3 µM·h
Tmax [2, 7]: 3.2 ± 2.5 h
molar ratio 3,5-diCQA:4,5-diCQA:3,4-diCQA in plasma [2]: 1.7

Compound: O=C(C=Cc1ccc(O)c(O)c1)OC1CC(O)(C(=O)O)CC(O)C1O (stereo not shown) [3-CQA, 3-caffeoylquinic acid]
Contribution to Glc-6-Pase system inhibition by the green coffee extract [1]: 0%
contribution to AUC of total phenolic compounds in plasma [2]: 5.2%
AUC [2]: 3.0 ± 4.5 µM·h
Cmax [2]: 900 ± 1400 nM
molar ratio 5-CQA:4-CQA:3-CQA in plasma [2]: 1.0

Compound: O=C(C=Cc1ccc(O)c(O)c1)OC1CC(O)(C(=O)O)CC(O)C1OC(=O)C=Cc1ccc(O)c(O)c1 (stereo not shown) [4,5-diCQA, 4,5-dicaffeoylquinic acid]
Percentage inhibition of G6Pase [1]: 13% and 12.8 ± 2.6%
Contribution to Glc-6-Pase system inhibition by the green coffee extract [1]: 35%
AUC [2]: 6.8 ± 5.7 µM·h
Cmax [2]: 2500 ± 3000 nM
Tmax [2]: 3.3 ± 2.5 h
molar ratio 3,5-diCQA:4,5-diCQA:3,4-diCQA in plasma [2]: 1.4

Compound: O=C(C=Cc1ccc(O)c(O)c1)OC1C(O)CC(O)(C(=O)O)CC1O (stereo not shown) [4-CQA, 4-caffeoylquinic acid]
Percentage inhibition of G6Pase [1]: 14% and 14.4 ± 1.2%
Contribution to Glc-6-Pase system inhibition by the green coffee extract [1]: 40%
Cmax ([2]; both sexes, human, po, 400 mg): 1400 ± 1100 nM
AUC [2, 6]: 4.3 ± 5.4 µM·h
Tmax [2, 7]: 3.6 ± 2.2 h
contribution to AUC of total phenolic compounds in plasma [2]: 7.5%
molar ratio 5-CQA:4-CQA:3-CQA in plasma [2]: 1.4
total urinary excretion ([3]; human, in vivo): 0.04 µmol

Compound: O=C(O)c1cc(O)c(O)c(O)c1 [Gallic Acid]
total urinary excretion ([3]; subject 1, 0-8 h after consumption): 43.47 µmol
total urinary excretion ([3]; subject 1, Baseline): 9.24 µmol
total urinary excretion ([3]; subject 2, 0-8 h after consumption): 18.67 µmol
total urinary excretion ([3]; subject 2, Baseline): 3.55 µmol
total urinary excretion ([3]; subject 3, 0-8 h after consumption): 9.41 µmol
total urinary excretion ([3]; subject 3, Baseline): 1.86 µmol
total urinary excretion ([3]; subject 4, 0-8 h after consumption): 7.98 µmol
total urinary excretion ([3]; subject 4, Baseline): 0.70 µmol
total urinary excretion ([3]; subject 5, 0-8 h after consumption): 25.45 µmol
total urinary excretion ([3]; subject 5, Baseline): 10.19 µmol
total urinary excretion ([3]; subject 6, Baseline): 10.57 µmol
total urinary excretion ([3]; subject 7, 0-8 h after consumption): 14.03 µmol
total urinary excretion ([3]; subject 7, Baseline): 0.25 µmol
total urinary excretion ([3]; subject 8, 0-8 h after consumption): 68.21 µmol
total urinary excretion ([3]; subject 8, Baseline): 6.79 µmol
total urinary excretion ([3]; subject 9, 0-8 h after consumption): 57.69 µmol
total urinary excretion ([3]; subject 9, Baseline): 1.68 µmol
total urinary excretion ([3]; subject 10, 0-8 h after consumption): 112.22 µmol
total urinary excretion ([3]; subject 10, Baseline): 25.25 µmol

Compound: O=C(O)c1ccccc1 [benzoic acid]
identification in urine ([3]; before or after the extract consumption): not identified

Compound: COc1cc(CCC(=O)O)ccc1O [dihydroferulic acid]
identification in urine ([3]; human, in vivo): not identified

Compound: O=C(O)CNC(=O)c1ccccc1 [hippuric acid]
identification in urine ([3]; human, in vivo): not identified
